Measurements as given in ChEMBL document CHEMBL1124763, “Nucleoside conjugates. 11. Synthesis and antitumor activity of 1-beta-D-arabinofuranosylcytosine and cytidine conjugates of thioether lipids” (1990).

Legend:
[1] = tested on: Mus musculus; assay: Increase of life span was determined against Ip implanted L1210 / 0 lymphoid leukemia in mice at a dose of 200 mg/kg per day after treatment 1;8/7.5; type: functional; details: L1210/0, ip, route intraperitoneal
[2] = tested on: Mus musculus; assay: Range of survival days for antitumor activity against Ip implanted L1210 / 0 lymphoid leukemia in mice at a dose of 200 mg/kg per day after treatment 1; range is 4-8; type: functional; details: route intraperitoneal
[3] = tested on: Mus musculus; assay: Survival time treated / survival time (T/C) for antitumor activity against Ip implanted L1210 / 0 lymphoid leukemia in mice at a dose of 200 mg/kg per day after treatment 1; type: functional; details: route intraperitoneal
[4] = tested on: Mus musculus; assay: Increase of life span was determined against Ip implanted L1210 / ara-C lymphoid leukemia in mice at a dose of 300 mg/kg per day; type: functional; details: route intraperitoneal
[5] = tested on: Mus musculus; assay: Range of survival days for antitumor activity against Ip implanted L1210 / ara-C lymphoid leukemia in mice at a dose of 300 mg/kg per day; range is 8-9; type: functional; details: route intraperitoneal
[6] = tested on: Mus musculus; assay: Survival time treated/survival time tested (T/C) for antitumor activity against Ip implanted L1210 / ara-C lymphoid leukemia in mice at a dose of 300 mg/kg per day;8/9; type: functional; details: route intraperitoneal
[7] = tested on: Mus musculus; assay: Increase of life span was determined against Ip implanted L1210 / 0 lymphoid leukemia in mice at a dose of 100 mg/kg per day after treatment 1; type: functional; details: L1210/0, ip, route intraperitoneal
[8] = tested on: Mus musculus; assay: Range of survival days for antitumor activity against Ip implanted L1210 / 0 lymphoid leukemia in mice at a dose of 200 mg/kg per day after treatment 1; type: functional; details: route intraperitoneal
[9] = tested on: Mus musculus; assay: Increase of life span was determined against Ip implanted L1210 / 0 lymphoid leukemia in mice at a dose of 200 mg/kg per day after treatment 1; type: functional; details: L1210/0, ip, route intraperitoneal
[10] = tested on: Mus musculus; assay: Survival time treated / survival time (T/C) for antitumor activity against Ip implanted L1210 / 0 lymphoid leukemia in mice at a dose of 100 mg/kg per day after treatment 1;9.5/7; type: functional; details: route intraperitoneal
[11] = tested on: Mus musculus; assay: Survival time treated / survival time (T/C) for antitumor activity against Ip implanted L1210 / 0 lymphoid leukemia in mice at a dose of 200 mg/kg per day after treatment 1;6/7; type: functional; details: route intraperitoneal
[12] = tested on: Mus musculus; assay: Range of survival days for antitumor activity against Ip implanted L1210 / 0 lymphoid leukemia in mice at a dose of 100 mg/kg per day after treatment 1; range is 4-11; type: functional; details: route intraperitoneal
[13] = tested on: Mus musculus; assay: Median survival time for antitumor activity against Ip implanted L1210 / 0 lymphoid leukemia in mice at a dose of 300 mg/kg per day after treatment 1;7.5-8; details: route intraperitoneal
[14] = tested on: Mus musculus; assay: Range of survival days for antitumor activity against Ip implanted L1210 / ara-C (II )lymphoid leukemia in mice at a dose of 300 mg/kg per day; range is 7-8; type: functional; details: route intraperitoneal
[15] = tested on: Mus musculus; assay: Survival time treated/survival time tested (T/C) for antitumor activity against Ip implanted L1210 / ara-C (II) lymphoid leukemia in mice at a dose of 300 mg/kg per day;8/9; type: functional; details: route intraperitoneal
[16] = tested on: Mus musculus; assay: Increase of life span was determined against Ip implanted L1210 / ara-C (II) lymphoid leukemia in mice at a dose of 300 mg/kg per day; type: functional; details: route intraperitoneal
[17] = tested on: Mus musculus; assay: Range of survival days for antitumor activity against Ip implanted L1210 / 0 lymphoid leukemia in mice at a dose of 300 mg/kg per day after treatment 1; range is 7-9; type: functional; details: route intraperitoneal
[18] = tested on: Mus musculus; assay: Increase of life span was determined against Ip implanted L1210 / 0 lymphoid leukemia in mice at a dose of 300 mg/kg per day after treatment 1; type: functional; details: L1210/0, ip, route intraperitoneal
[19] = tested on: Mus musculus; assay: Range of survival days for antitumor activity against Ip implanted L1210 / 0 lymphoid leukemia in mice at a dose of 200 mg/kg per day after treatment 1; range is 4-12; type: functional; details: route intraperitoneal
[20] = tested on: Mus musculus; assay: Survival time treated / survival time (T/C) for antitumor activity against Ip implanted L1210 / 0 lymphoid leukemia in mice at a dose of 100 mg/kg per day after treatment 1;9.5/8; type: functional; details: route intraperitoneal
[21] = tested on: Mus musculus; assay: Survival time treated / survival time (T/C) for antitumor activity against Ip implanted L1210 / 0 lymphoid leukemia in mice at a dose of 200 mg/kg per day after treatment 1;7.5/8; type: functional; details: route intraperitoneal
[22] = tested on: Mus musculus; assay: Range of survival days for antitumor activity against Ip implanted L1210 / 0 lymphoid leukemia in mice at a dose of 100 mg/kg per day after treatment 1; range is 9-10; type: functional; details: route intraperitoneal
[23] = tested on: Mus musculus; assay: Survival time treated / survival time (T/C) for antitumor activity against Ip implanted L1210 / 0 lymphoid leukemia in mice at a dose of 80 mg/kg per day after treatment 1-5;16/8; type: functional; details: route intraperitoneal
[24] = tested on: Mus musculus; assay: Range of survival days for antitumor activity against Ip implanted L1210 / 0 lymphoid leukemia in mice at a dose of 400 mg/kg per day after treatment 1; range is 11-15; type: functional; details: route intraperitoneal
[25] = tested on: Mus musculus; assay: Survival time treated / survival time (T/C) for antitumor activity against Ip implanted L1210 / 0 lymphoid leukemia in mice at a dose of 100 mg/kg per day after treatment 1-5;21.5/8; type: functional; details: route intraperitoneal
[26] = tested on: Mus musculus; assay: Survival time treated / survival time (T/C) for antitumor activity against Ip implanted L1210 / 0 lymphoid leukemia in mice at a dose of 400 mg/kg per day after treatment 1;14/8; type: functional; details: route intraperitoneal
[27] = tested on: Mus musculus; assay: Range of survival days for antitumor activity against Ip implanted L1210 / 0 lymphoid leukemia in mice at a dose of 80 mg/kg per day after treatment 1-5; range is 14-19; type: functional; details: route intraperitoneal
[28] = tested on: Mus musculus; assay: Increase of life span was determined against Ip implanted L1210 / 0 lymphoid leukemia in mice at a dose of 400 mg/kg per day after treatment 1; type: functional; details: L1210/0, ip, route intraperitoneal
[29] = tested on: Mus musculus; assay: Increase of life span was determined against Ip implanted L1210 / 0 lymphoid leukemia in mice at a dose of 80 mg/kg per day after treatment 1-5; type: functional; details: L1210/0, ip, route intraperitoneal
[30] = tested on: Mus musculus; assay: Range of survival days for antitumor activity against Ip implanted L1210 / 0 lymphoid leukemia in mice at a dose of 100 mg/kg per day after treatment 1- 5; range is 15-32; type: functional; details: route intraperitoneal
[31] = tested on: Mus musculus; assay: Increase of life span was determined against Ip implanted L1210 / 0 lymphoid leukemia in mice at a dose of 100 mg/kg per day after treatment 1-5; type: functional; details: L1210/0, ip, route intraperitoneal
[32] = tested on: Mus musculus; assay: Increase of life span was determined against Ip implanted L1210 / 0 lymphoid leukemia in mice at a dose of 400 mg/kg per day after treatment 5; type: functional; details: L1210/0, ip, route intraperitoneal
[33] = tested on: Mus musculus; assay: Range of survival days for antitumor activity against Ip implanted L1210 / 0 lymphoid leukemia in mice at a dose of 400 mg/kg per day after treatment 1; range is 8-10; type: functional; details: route intraperitoneal
[34] = tested on: Mus musculus; assay: Survival time treated for antitumor activity against Ip implanted L1210 / 0 lymphoid leukemia in mice at a dose of 200 mg/kg per day after treatment 1-5;16/7; details: route intraperitoneal
[35] = tested on: Mus musculus; assay: Survival time treated for antitumor activity against Ip implanted L1210 / 0 lymphoid leukemia in mice at a dose of 400 mg/kg per day after treatment 5;10/7; details: route intraperitoneal
[36] = tested on: Mus musculus; assay: Range of survival days for antitumor activity against Ip implanted L1210 / 0 lymphoid leukemia in mice at a dose of 400 mg/kg per day after treatment 5; type: functional; details: route intraperitoneal
[37] = tested on: Mus musculus; assay: Increase of life span was determined against Ip implanted L1210 / 0 lymphoid leukemia in mice at a dose of 200 mg/kg per day after treatment 1-5; type: functional; details: L1210/0, ip, route intraperitoneal
[38] = tested on: Mus musculus; assay: Range of survival days for antitumor activity against Ip implanted L1210 / 0 lymphoid leukemia in mice at a dose of 200 mg/kg per day after treatment 1-5; range is 15-17; type: functional; details: route intraperitoneal
[39] = tested on: Mus musculus; assay: Survival time treated for antitumor activity against Ip implanted L1210 / 0 lymphoid leukemia in mice at a dose of 400 mg/kg per day after treatment 1;8/7; details: route intraperitoneal

## CCCCCCCCCCCCCCCCCCSCC(COP(=O)(O)OP(=O)(O)OC[C@H]1O[C@@H](n2ccc(N)nc2=O)[C@H](O)[C@@H]1O)OC (some centres not stated)
[1]
  ILS at 200 mg/kg/day: 7%
[2]
  Range of survival days: 4
[3]
  T/C: 8
[4]
  ILS at 300 mg/kg/day: -11%
[5]
  Range of survival days: 8
[6]
  T/C: 8

## CCCCCCCCCCCCCCCCCCSCC(COP(=O)(O)OP(=O)(O)OC[C@H]1O[C@@H](n2ccc(N)nc2=O)[C@@H](O)[C@@H]1O)OC (mixture of isomers)
[7]
  ILS at 100 mg/kg/day: 36%
[8]
  Range of survival days: 6
[9]
  ILS at 200 mg/kg/day: -14%
[10]
  T/C: 9.5
[11]
  T/C: 6
[12]
  Range of survival days: 4

## CCCCCCCCCCCCCCCCCCSCC(COP(=O)(O)OP(=O)(O)OC[C@H]1O[C@@H](n2ccc(N)nc2=O)[C@H](O)[C@@H]1O)OC(=O)CCCCCCCCCCCCCCC (mixture of isomers)
[13]
  median survival time: 7.5 days
[14]
  Range of survival days: 7
[15]
  median survival time: 8 days
[16]
  ILS at 300 mg/kg/day: -11%
[17]
  Range of survival days: 7
[18]
  ILS at 300 mg/kg/day: -6%

## CCCCCCCCCCCCCCCCCCSCC(COP(=O)(O)OP(=O)(O)OC[C@H]1OC(n2ccc(N)nc2=O)[C@@H](O)[C@@H]1O)OCC (mixture of isomers)
[7]
  ILS at 100 mg/kg/day: 19%
[9]
  ILS at 200 mg/kg/day: -6%
[19]
  Range of survival days: 4
[20]
  T/C: 9.5
[21]
  T/C: 7.5
[22]
  Range of survival days: 9

## CCCCCCCCCCCCCCCCCCSCC(COP(=O)(O)OP(=O)(O)OC[C@H]1OC(n2ccc(N)nc2=O)[C@@H](O)[C@@H]1O)OCCCCCCCCCCCCCCCC (mixture of isomers)
[23]
  T/C: 16
[24]
  Range of survival days: 11
[25]
  T/C: 21.5
[26]
  T/C: 14
[27]
  Range of survival days: 14
[28]
  ILS at 400 mg/kg/day: 75%
[29]
  ILS at 80 mg/kg/day: 100%
[30]
  Range of survival days: 15
[31]
  ILS at 100 mg/kg/day: 169%

## Nc1ccn([C@@H]2O[C@H](CO)[C@@H](O)[C@@H]2O)c(=O)n1 [CYTARABINE]
[32]
  ILS at 400 mg/kg/day: 43%
[33]
  Range of survival days: 8
[34]
  survival time: 16 days
[35]
  survival time: 10 days
[36]
  Range of survival days: 10
[37]
  ILS at 200 mg/kg/day: 129%
[28]
  ILS at 400 mg/kg/day: 14%
[38]
  Range of survival days: 15
[39]
  survival time: 8 days
